In test [1] the target is JAK2 (Homo sapiens (Human), UniProt O60674). Kind of test: Biochemical JAK kinase assay (LanthaScreen), JAK2. The conditions noted are these: read-out: JAK2 pKi (converted). The protocol:
Recombinant GST-tagged JAK enzymes and a GFP-tagged STAT1 peptide substrate were obtained from Life Technologies. Serially diluted compounds were pre-incubated with each of the four JAK enzymes and the substrate in white 384-well microplates (Corning) at ambient temperature for 1 h. ATP was subsequently added to initiate the kinase reactions in 10 μL total volume, with 1% DMSO. […] Kinase reactions were allowed to proceed for 1 hour at ambient temperature before a 10 μL preparation of EDTA (10 mM final concentration) and Tb-anti-pSTAT1 ([…]) antibody (Life Technologies, 2 nM final concentration) in TR-FRET dilution buffer (Life Technologies) was added. The plates were allowed to incubate at ambient temperature for 1 h before being read on the EnVision reader (Perkin Elmer). Emission ratio signals (520 nm/495 nm) were recorded and utilized to calculate the percent inhibition values based on DMSO and background controls. For dose-response analysis, percent inhibition data were plotted vs. compound concentrations, and IC50 values were determined from a 4-parameter robust fit model with the Prism software (GraphPad Software). Results were expressed as pIC50 (negative logarithm of IC50) and subsequently converted to pKi (negative logarithm of dissociation constant, Ki) using the Cheng-Prusoff equation. Test compounds having a lower Ki value or higher pKi value in the four JAK assays show greater inhibition of JAK activity.

Test [2] relates to spontaneous periostin secretion. Kind of test: Inhibition of spontaneous periostin secretion in human 3D airway cultures from asthmatic donors. It counts as cell-based. The conditions noted are these: 192 h, 8 days, 3 or 4 donors. On the procedure:
EpiAirway tissue cultures were obtained from Mattek (AIR-100). Cells were derived from asthmatic donors that spontaneously secrete periostin, a matricellular protein associated with Th2 mediated asthma (eosinophilic), and interleukin-6 (IL-6), an inflammatory cytokine that plays a role in both Th2 and non-Th2 related asthma. In a cell culture insert, human derived tracheal/bronchial epithelial cells were grown and differentiated on a porous membrane support, allowing an air-liquid interface with warmed culture medium below the cells and a gaseous test atmosphere above. Tissues were cultured in maintenance media ([…]) in a 37° C., 5% CO2 humidified incubator. Four donors were tested. On Day 0, tissue cultures were treated with test compounds in liquid interface at 10 μM, 1 μM and/or 0.1 μM. Compounds were diluted in dimethyl sulfoxide (DMSO, Sigma) to a final concentration of 0.1%. DMSO at 0.1% was used as a vehicle control. Tissue cultures were maintained for 8 days. Media was replaced every 2 days with fresh media containing compounds. On Day 8, supernatants were collected for analysis. […] Data is expressed as % Inhibition+/-standard deviation (±STDV). Percent inhibition was determined by compound inhibitory potency against spontaneous secretion of periostin and IL-6 compared to vehicle treated cells. […]

Test [3] relates to IFNγ stimulated STAT1 phosphorylation in CD14+ monocytes. Kind of test: Cellular JAK potency assay: inhibition of IFNγ-induced pSTAT1. It counts as cell-based. The conditions noted are these: Monocyte; CD14+ monocytes from human whole blood; read-out: pIC50, inhibition of IFNγ-induced pSTAT1 (converted). The protocol:
The potency of test compounds for inhibition of interferon gamma (IFNγ) stimulated STAT1 phosphorylation was measured in CD14-positive (CD14+) monocytes derived from human whole blood (Stanford Blood Center) using flow cytometry. Because IFNγ signals through JAK, this assay provides a measure of JAK cellular potency. Monocytes were identified using a fluorescein isothiocyanate (FITC) conjugated anti-CD14 antibody (Clone RM052, Beckman Coulter), and an Alexa Fluor 647 conjugated anti-pSTAT1 antibody ([…], Clone 4a, BD Biosciences) was used to detect STAT1 phosphorylation. Human peripheral blood mononuclear cells (PBMC) were isolated from human whole blood of healthy donors using a ficoll gradient. […] Cells were washed twice with FACS buffer, and then re-suspended in 1:10 anti-pSTAT1 Alexa Fluor 647:FACS buffer (100 μL) for 30 min at RT in the dark, washed twice in FACS buffer, and analyzed using a MACSQuant flow cytometer (Miltenyi). To determine the inhibitory potency of the test compound, the median fluorescent intensity (MFI) of pSTAT1 was measured in CD14+ monocytes. IC50 values were determined from analysis of the inhibition curves of MFI vs compound concentration. Data are expressed as pIC50 (negative decadic logarithm IC50) values.

Sequence of JAK2 (O60674 whole entry): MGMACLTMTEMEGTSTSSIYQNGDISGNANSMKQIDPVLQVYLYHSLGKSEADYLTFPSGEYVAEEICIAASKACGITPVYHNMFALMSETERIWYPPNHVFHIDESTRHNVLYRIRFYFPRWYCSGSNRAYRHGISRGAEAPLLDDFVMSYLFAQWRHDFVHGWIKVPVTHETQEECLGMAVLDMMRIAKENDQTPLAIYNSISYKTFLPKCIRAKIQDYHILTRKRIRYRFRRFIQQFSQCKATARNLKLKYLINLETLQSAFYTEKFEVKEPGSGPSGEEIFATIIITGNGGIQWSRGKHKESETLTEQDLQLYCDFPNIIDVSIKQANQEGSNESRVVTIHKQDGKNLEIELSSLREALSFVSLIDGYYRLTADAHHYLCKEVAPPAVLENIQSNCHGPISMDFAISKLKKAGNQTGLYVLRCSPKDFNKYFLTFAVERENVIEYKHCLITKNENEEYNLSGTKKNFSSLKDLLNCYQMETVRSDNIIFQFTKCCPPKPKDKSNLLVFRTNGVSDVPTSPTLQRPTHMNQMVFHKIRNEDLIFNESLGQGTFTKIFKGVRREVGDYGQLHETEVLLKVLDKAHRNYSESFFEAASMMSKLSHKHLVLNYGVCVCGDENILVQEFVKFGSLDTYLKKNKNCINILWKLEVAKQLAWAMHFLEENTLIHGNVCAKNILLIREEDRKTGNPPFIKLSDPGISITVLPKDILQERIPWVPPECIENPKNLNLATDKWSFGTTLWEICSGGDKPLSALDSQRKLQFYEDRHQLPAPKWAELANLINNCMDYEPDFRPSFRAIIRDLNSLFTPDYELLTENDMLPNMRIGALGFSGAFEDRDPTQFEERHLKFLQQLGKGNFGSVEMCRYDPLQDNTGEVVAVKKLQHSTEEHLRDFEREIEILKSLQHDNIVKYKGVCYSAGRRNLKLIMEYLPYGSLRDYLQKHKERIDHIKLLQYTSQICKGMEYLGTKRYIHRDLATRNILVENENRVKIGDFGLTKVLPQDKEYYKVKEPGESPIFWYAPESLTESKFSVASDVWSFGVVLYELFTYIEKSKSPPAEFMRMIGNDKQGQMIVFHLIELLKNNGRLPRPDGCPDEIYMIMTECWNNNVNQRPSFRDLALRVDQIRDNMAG

As usually defined, the inhibition is the relative decrease from the control value, in per cent. Higher therefore signals strong suppression. Consider `CCc1cc(O)ccc1-c1ccc2c(-c3nc4c([nH]3)CN(C(C)C)[C@H](C(=O)N3CC(N(C)C)C3)C4)n[nH]c2c1` [Compound 1, (S)-(3-(dimethylamino)azetidin-1-yl)(2-(6-(2-ethyl-4-hydroxyphenyl)-1H-indazol-3-yl)-5-isopropyl-4,5,6,7-tetrahydro-3H-imidazo[4,5-c]pyridin-6-yl)methanone], for which, in test [1], the Ki is 0.0316 nM. The same compound registered an inhibition at 1 µM in test [2] (1 μM) of 40%. The same compound came in with an inhibition at 10 µM in test [2] (10 μM) of 62%. Moreover, the IC50 in test [3] was 31.6 nM.
